Laboratory results as given in patent US6485975B1, “Method for regenerating viable and fertile citrus plants by tissue culture from explants” (Council of Scientific and Industrial Research, priority 2000, dated 2002).
Several values for one entry are separate records, joined by “and”; a condition that tells them apart may be missing. Equal values may be shown once.

Columns and labels:
[1] = system: isolated shoots of Citrus aurantifolia; assay: Proliferation of isolated shoots of Citrus aurantifolia; format: cell-based; settings: for Condition of shoots / Growth of regenerated shoots Length in cm: 30 days; for No. of off-shoots regenerated: culture period 30 days, mean of 5 cultures ± S.E.
From the text: (§1) g) proliferating the meristem-regenerated 1.5-cm-long shoots of C. aurantifolia and C. sinensis by repeated subculture in medium-A and medium-B, respectively to obtain well-developed shoots to the extent of an average 10 shoots and 6 shoots, respectively, within 4 subcultures of 30 days each,
(§2) Proliferation of Isolated Shoots Obtained from Regenerated Nodal Stem Segments of Mature Field-grown Trees of Citrus aurantifolis and C. sinensis
(§3) Proliferation of isolated shoots was obtained in presence of BAP and an auxin, LAA or NAA employing the medium-A (Table I) for C. aurantifolia, and medium-B (Table I) for C. sinensis, but not vice-versa, where both media A and B, devoid of growth hormones comprised the basal media. […] Responses of the isolated shoots to some selected combinations of BAP with IAA or NAA are given in the Table 1, which lead to the selection of specific nutrient media for optimum proliferation of shoots of these two Citrus species.
The maximum number of offshoots produced per explant of a shoot tip of C. aurantifolia was 7 in 0.75 mg 1^−1 BAP and 0.25 mg 1^−1 IAA, however, the shoots not only were restricted in growth, but also substantial intervening callus was formed. Similarly, in the concentrations of 0.5 and 1.0 mg 1^−1 BAP, particularly the second aspect of response remained equally prominent, i.e., growth restriction of offshoots and intervening callusing during their differentiation. […] Thus, the 0.25 mg 1^−1 concentration of both BAP and IAA was selected comprising the medium-A for proliferation of isolated shoots originally regenerated from nodal stem segments of mature field-grown trees of C. aurantifolia.

[2] = system: isolated shoots of C. sinensis; assay: Proliferation of isolated shoots of C. sinensis; format: cell-based, Citrus sinensis; settings: for Condition of shoots / Growth of regenerated shoots Length in cm: 30 days; for No. of off-shoots regenerated: culture period 30 days, mean of 5 cultures ± S.E.
From the text: as §1, §2, §3
Likewise, 0.25 mg 1^−1 concentration of BAP and 0.5 mg 1^−1 of NAA were selected comprising the medium-B for optimum proliferation of shoots of C. sinensis in view of the same two criteria, viz., moderately high number of offshoot production with good growth and their differentiation without any intervening callusing.

[3] = system: excised shoot meristems of Citrus aurantifolia and C. sinensis; assay: Growth of excised shoot meristems, both Citrus species not distinguished; format: cell-based
From the text: e) excising the meristem domes along with youngest 2-3 leaf primordia ranging in length between 0.2-0.5 mm from the aseptically grown shoots followed by their culture on the liquid medium-C under the same controlled light and temperature conditions as in step (c) at least for a period of 15 days to let them attain a length of ca. 8 mm, f) subculturing the meristem-regenerated shoots on filter paper bridge employing liquid medium-D in order to obtain healthy shoots of an average length of about 1.5 cm without intervening callusing within a period of 20-25 days, Since for growth, an excised shoot meristem may require exogenous supply of mainly three growth hormones, viz., a cytokinin, an auxin and a gibberellin, these were provided individually at 3 concentrations (mg 1^−1) each and in certain combinations as given below using the medium-C (Table I) devoid of IAA and GA as the basal medium: 0.1 BAP; 0.25 BAP; 0.5 BAP; 0.1 IAA; 0.25 IAA; 0.5 IAA: 5 GA; 10 GA; 15 GA; 0.1 BAP+0.1 IAA; 0.25 BAP+0.1 IAA; 0.5 BAP+0.1 IAA; 5 GA+0.1 IAA; 10 GA+0.1 IAA and 15 GA+0.1 IAA. […] In the next step, on the basis of the responses obtained, shoot meristems were cultured in all the afore-said 3 concentrations of BAP (0.1, 0.25 and 0.5 mg 1^−1) or GA (5, 10 and 15 mg 1^−1) along with 0.1 mg 1^−1 IAA. […] In this treatment, growth of meristem on nutrient agar as well as in liquid medium using filter paper bridge was compared. Shoot meristems grew far better on filter paper bridge than on nutrient agar in the same treatment (table 3). […] Higher or lower than 0.1 mg 1^−1 concentrations of BAP were not conducive to normal growth of shoot meristems.

[4] = system: meristem-regenerated shoots of Citrus aurantifolia; assay: Root induction in meristem-regenerated shoots of Citrus aurantifolia; format: cell-based; settings: 0.25 mg l^-1 of the auxin, used with 1 mg l^-1 chlorogenic acid
From the text: (§4) h) rooting of the isolated well-developed shoots of C. aurantifolia to the extent of 100% in 15 days, and of C. sinensis to the extent of 90% in 25 days, in agarified media-E and F respectively.
The meristem-regenerated well-developed shoots of C. aurantifolia easily rooted in medium-E (Table I) selected on the basis of the formulations used earlier during the investigations on Citrus tissue culture in this Laboratory (Chaturvedi, H. C. 1979. Tissue culture of economic plants. In: Progress in Plant Research. Eds. T. N. Khoshoo and P. K. K. Nair, Today and Tomorrow's Publisher, New Delhi, Vol.1, pp.265-288; Chaturvedi, H. C. and Sharma, A. K. 1988. Citrus tissue culture. In: Proc. Natl. Seminar on Plant Tissue Culture, I.C.A.R., New Delhi, pp.36-46). The basic differences of the root inducing media from the shoot proliferation media of Citrus are, comparatively lower concentrations of nitrogen, calcium and magnesium in the former. […] Even its shoots raised from seedling explants have been reported to be intractable-to-root in vitro (Duran-vila, N., Ortega, V. and Navarro, L. 1989. Morphogenesis and tissue cultures of three citrus species. Plant Cell, Tissue and Organ Culture, 16: 123-133).

[5] = system: meristem-regenerated shoots of C. sinensis; assay: Root induction in meristem-regenerated shoots of C. sinensis; format: cell-based, Citrus sinensis; settings: same treatments as for C. aurantifolia (0.25 mg l^-1 auxin, 1 mg l^-1 chlorogenic acid)
From the text: as §4
The medium-E, which was found effective for inducing desirable rooting in a number of Citrus species, including its rootstocks, when was found deficient for promoting root induction in the presence of multiple combinations of auxins, viz., IAA. IPA, IBA and NAA without or with phenolic acids, namely, phloroglucinol and chlorogenic acid, it was variously modified. The modifications included, increase in the concentrations of thiamine-HCl, pyridoxine-HCl and nicotinic acid to 2.5, 0.5 and 0.5 mg 1^−1, respectively, addition of some other root promoting vitamins, like, riboflavin, folic acid and d-biotin at the concentration of 0.1 mg 1^−1 each as also 15 mg 1^−1 L-arginine.
The rooting responses of well-developed isolated shoots of C. sinensis to various auxins used without and with phenolic acids employing the medium-E (Table I) devoid of auxins and the phenolic acid as the basal medium, are presented in Table 3. A combination of three auxins, namely, IAA, NAA and IPA along with a phenolic acid, namely, chlorogenic acid or phloroglucinol was essential for root induction.

[6] = BAP (0.1, 0.25, 0.5 mg l^-1) or GA (5, 10, 15 mg l^-1) along with 0.1 mg l^-1 IAA
[7] = individually at lower concentrations: IAA 0.1 mg l^-1 or GA 5 mg l^-1

`c1ccc(CNc2ncnc3nc[nH]c23)cc1` [BAP, 6-benzylaminopurine] was tested, and the Condition of shoots ([1]; BAP 0.1 mg l^-1 with 0.25 IAA) was “A few well-develop-”, the “Growth of regenerated shoots Length in cm” value (“Growth” below) ([1]; BAP 0.1 mg l^-1 with 0.25 IAA) was 1.44 ± 0.14 cm and the “No. of off-shoots regenerated” value ([1]; BAP 0.1 mg l^-1 with 0.25 IAA) was 3.6 ± 0.40. The Condition of shoots ([1]; BAP 0.25 mg l^-1 with 0.25 IAA) was “Well-developed”, the “Growth” value ([1]; BAP 0.25 mg l^-1 with 0.25 IAA) was 1.40 ± 0.13 cm and the “No. of off-shoots regenerated” value ([1]; BAP 0.25 mg l^-1 with 0.25 IAA) was 5.8 and 5.8 ± 0.58. For the same compound, the “Growth” value ([1]; BAP 0.5 mg l^-1 with 0.25 IAA) was 0.99 ± 0.10 cm, the “No. of off-shoots regenerated” value ([1]; BAP 0.5 mg l^-1 with 0.25 IAA) was 5.4 ± 1.02 and the “Growth” value ([1]; BAP 0.75 mg l^-1 with 0.25 IAA) was 0.86 ± 0.08 cm. For the same compound, the “No. of off-shoots regenerated” value ([1]; BAP 0.75 mg l^-1 with 0.25 IAA) was 7 and 7.0 ± 0.44, the “Growth” value ([1]; BAP 1.0 mg l^-1 with 0.25 IAA) was 0.76 ± 0.10 cm and the “No. of off-shoots regenerated” value ([1]; BAP 1.0 mg l^-1 with 0.25 IAA) was 5.6 ± 1.40. For the same compound, the Condition of shoots ([2]; BAP 0.1 mg l^-1 with 0.5 NAA) was “A few well-”, the “Growth” value ([2]; BAP 0.1 mg l^-1 with 0.5 NAA) was 1.16 ± 0.27 cm and the “No. of off-shoots regenerated” value ([2]; BAP 0.1 mg l^-1 with 0.5 NAA) was 1.8 ± 0.37. For the same compound, the Condition of shoots ([2]; BAP 0.25 mg l^-1 with 0.5 NAA) was “Well-developed”, the “Growth” value ([2]; BAP 0.25 mg l^-1 with 0.5 NAA) was 1.65 ± 0.20 cm and the “No. of off-shoots regenerated” value ([2]; BAP 0.25 mg l^-1 with 0.5 NAA) was 2.6 and 2.6 ± 0.24. For the same compound, the Condition of shoots ([2]; BAP 0.5 mg l^-1 with 0.5 NAA) was “Well-developed”, the “Growth” value ([2]; BAP 0.5 mg l^-1 with 0.5 NAA) was 1.08 ± 0.12 cm and the “No. of off-shoots regenerated” value ([2]; BAP 0.5 mg l^-1 with 0.5 NAA) was 3.4 ± 0.44. The “Growth” value ([2]; BAP 0.75 mg l^-1 with 0.5 NAA) was 0.78 ± 0.10 cm, the “No. of off-shoots regenerated” value ([2]; BAP 0.75 mg l^-1 with 0.5 NAA) was 3.2 ± 0.73 and the “Growth” value ([2]; BAP 1.0 mg l^-1 with 0.5 NAA) was 0.75 ± 0.08 cm. The “No. of off-shoots regenerated” value ([2]; BAP 1.0 mg l^-1 with 0.5 NAA) was 2.0 ± 0.31, the “response of shoot meristems” value [3, 6] was “became abnormally thick” and the “delay of necrosis of shoot meristem” value ([3]; BAP individually, particularly 0.1 mg l^-1) was 10 to 15 days.
`C=C1C[C@]23C[C@@]1(O)CC[C@H]2[C@@]12C=C[C@H](O)[C@@](C)(C(=O)O1)[C@H]2[C@@H]3C(=O)O` [GA, gibberellic acid] was tested, and the “response of shoot meristems” value [3, 6] was “registered some growth” and the “response of shoot meristems” value [3, 7] was “remained fresh with a little increase in their length”.
With `O=C(O)Cc1c[nH]c2ccccc12` [IAA, indole-3-acetic acid] the rooting [4] was “Hundred percent”, the rooting [5] was “did not root” and the “response of shoot meristems” value [3, 7] was “remained fresh with a little increase in their length”.
With `O=C(O)CCCc1c[nH]c2ccccc12` [IBA, indole-3-butyric acid] the rooting [4] was “Hundred percent” and the rooting [5] was “did not root”.
In the case of `O=C(O)CCc1c[nH]c2ccccc12` [IPA, indole-3-propionic acid], the rooting [4] is reported as “Hundred percent” and the rooting [5] is reported as “did not root”.
For `O=C(O)Cc1cccc2ccccc12` [NAA, α-naphthalene-acetic acid], the rooting [4] was “Hundred percent” and the rooting [5] was “did not root”.
